For one experiment, the target named is T1, human CB1 receptor (Homo sapiens, UniProt P21554).
T1 construct: expressed in transfected cells; host or cells: human embryonic kidney (HEK) cells, Semliki Forest Virus system, membrane preparations
Nature of the experiment: CB1 receptor affinity ([3H]-CP-55,940 displacement, HEK cell membranes). Conditions: displacement of radioligand [3H]-CP-55,940. The format is binding. Summed up:
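HEK cell membranes transiently expressing human CB1 (Semliki Forest Virus) incubated with [3H]-CP-55,940 and compound at 10 μM. Bound and free ligand separated by glass-fibre filtration, then scintillation counting. Reported as % inhibition of radioligand binding.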

The next experiment has as its system ABCA1 protein. Nature of the experiment: Detection of upregulation of ABCA1 protein in cells (ApoA-I binding, high content image analysis). The settings on record: THP-1 macrophage cells; for % increase of ABCA1 at 3 μM: 24 hrs with compound; for pEC50: ABCA1 protein increasing efficacy. The format is cell-based. The essentials: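 THP-1 cells differentiated with 100 nM PMA for 68 hrs, loaded with 25 μg/ml acetylated LDL for 24 hours, then exposed to compound (0.5% DMSO) for 24 hrs. Surface ABCA1 measured by binding of AlexaFluor 647-labeled human ApoA-I (20 nM, 2 h, 37 °C) with confocal high-content imaging; EC50 from one-site dose-response fit.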

The target in another experiment is T2, human CB2 receptor (Homo sapiens, UniProt P34972).
T2 construct: expressed in transfected cells; host or cells: human embryonic kidney (HEK) cells, Semliki Forest Virus system, membrane preparations
The experiment is described as follows: CB2 receptor affinity ([3H]-CP-55,940 displacement, HEK cell membranes). The format is binding. Conditions: displacement of radioligand [3H]-CP-55,940. The essentials: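 Membranes from HEK cells transiently expressing human CB2 via Semliki Forest Virus, incubated with [3H]-CP-55,940 ± compound; bound ligand separated by glass-fiber filtration and counted by scintillation. Reported as % inhibition of radioligand binding at 10 μM compound.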

pEC50: −log10 of the molar value.

T1 sequence (P21554 whole entry): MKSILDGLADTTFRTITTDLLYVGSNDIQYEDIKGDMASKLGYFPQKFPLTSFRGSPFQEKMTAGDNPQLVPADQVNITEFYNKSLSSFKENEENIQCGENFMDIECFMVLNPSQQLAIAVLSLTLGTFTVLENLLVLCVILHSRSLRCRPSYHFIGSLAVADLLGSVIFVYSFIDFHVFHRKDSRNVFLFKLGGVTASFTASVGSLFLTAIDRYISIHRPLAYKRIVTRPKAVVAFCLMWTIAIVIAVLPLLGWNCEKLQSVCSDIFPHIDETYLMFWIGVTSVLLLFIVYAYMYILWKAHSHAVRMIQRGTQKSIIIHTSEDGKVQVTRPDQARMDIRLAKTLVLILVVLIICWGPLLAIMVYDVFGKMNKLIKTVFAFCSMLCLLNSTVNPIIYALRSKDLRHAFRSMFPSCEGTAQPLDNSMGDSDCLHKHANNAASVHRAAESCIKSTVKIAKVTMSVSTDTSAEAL
T2 sequence (P34972 whole entry): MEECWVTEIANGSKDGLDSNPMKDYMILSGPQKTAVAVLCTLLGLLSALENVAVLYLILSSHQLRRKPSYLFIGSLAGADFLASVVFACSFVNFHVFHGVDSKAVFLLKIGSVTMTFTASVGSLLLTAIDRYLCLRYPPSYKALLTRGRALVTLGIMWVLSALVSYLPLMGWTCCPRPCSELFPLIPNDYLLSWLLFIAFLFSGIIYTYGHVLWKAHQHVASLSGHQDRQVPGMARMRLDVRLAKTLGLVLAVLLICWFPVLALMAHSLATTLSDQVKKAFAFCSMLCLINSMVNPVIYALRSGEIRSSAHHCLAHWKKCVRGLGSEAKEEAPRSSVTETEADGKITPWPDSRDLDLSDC

Broadly, the inhibition is the relative decrease from the control value, in per cent. Consider `O=C(Nc1cnc(OC2CCC2)c(-c2ccc(Cl)cc2)c1)c1cccnc1` [Example 79, N-(5-(4-chlorophenyl)-6-cyclobutoxypyridin-3-yl)nicotinamide], for which the inhibition at 10 µM was 29% at human CB1 receptor and 13% at human CB2 receptor. In addition, in the experiment on ABCA1 protein, the “% increase of ABCA1 at 3 μM” value is reported as greater than 45% @ 3 μM.
For orientation: pEC50 means −log10 of the EC50, conventionally taken in molar units. With `O=C(Nc1cnc(OCC(F)(F)F)c(-c2ccc(Cl)cc2)c1)c1cccnc1` [Example 3, N-[5-(4-chloro-phenyl)-6-(2,2,2-trifluoro-ethoxy)-pyridin-3-yl]-nicotinamide], the inhibition at 10 µM at human CB1 receptor was determined as 29%; on human CB2 receptor it was 8%. Also, the pEC50 with ABCA1 protein was 5.64.
Take `O=C(Nc1cnc(OCC(F)(F)F)c(-c2ccc(Cl)cc2)c1)c1ccccn1` [Example 7, pyridine-2-carboxylic acid[5-(4-chloro-phenyl)-6-(2,2,2-trifluoro-ethoxy)-pyridin-3-yl]-amide]: the inhibition at 10 µM was 13% at human CB1 receptor and 1.2% on human CB2 receptor. In addition, the “% increase of ABCA1 at 3 μM” value with ABCA1 protein is on record as greater than 45% @ 3 μM.
Turning to `Cc1ocnc1C(=O)Nc1cnc(OCC(F)(F)F)c(-c2ccc(Cl)cc2)c1` [Example 37, 5-methyl-4-oxazolecarboxylic acid[5-(4-chloro-phenyl)-6-(2,2,2-trifluoro-ethoxy)-pyridin-3-yl]-amide], the results for the inhibition at 10 µM on human CB1 receptor and at human CB2 receptor were 27% and 8%, respectively. For the same compound, the “% increase of ABCA1 at 3 μM” value with ABCA1 protein was greater than 45% @ 3 μM.
Regarding `O=C(Nc1cnc(OCC(F)(F)F)c(-c2ccc(Cl)cc2)c1)c1cncnc1` [Example 19, 5-pyrimidinecarboxylic acid[5-(4-chloro-phenyl)-6-(2,2,2-trifluoro-ethoxy)-pyridin-3-yl]-amide], the inhibition at 10 µM was 25% on human CB1 receptor and -10% at human CB2 receptor. For the same compound, in the experiment with ABCA1 protein, the pEC50 is 5.86.
Taken in the same sequence, the figures for `O=C(Nc1cnc(OCC(F)(F)F)c(-c2ccc(Cl)cc2F)c1)c1cccnn1` [Example 64, N-(5-(4-chloro-2-fluorophenyl)-6-(2,2,2-trifluoroethoxy)pyridin-3-yl)pyridazine-3-carboxamide] were 9%, 2% and 5.97.
For the compound `CNC(=O)c1cncc(C(=O)Nc2cnc(OCC(F)(F)F)c(-c3ccc(Cl)cc3)c2)c1` [Example 87, N3-(5-(4-chlorophenyl)-6-(2,2,2-trifluoroethoxy)pyridin-3-yl)-N5-methylpyridine-3,5-dicarboxamide], the inhibition at 10 µM on human CB1 receptor is 19%; at human CB2 receptor, -15%. Also, the “% increase of ABCA1 at 3 μM” value in the experiment with ABCA1 protein is given as greater than 45% @ 3 μM.
Regarding `CO/N=C(\C)C(=O)Nc1cnc(OCC(F)(F)F)c(-c2ccc(Cl)cc2)c1` [Example 89, (E)-N-(5-(4-chlorophenyl)-6-(2,2,2-trifluoroethoxy)pyridin-3-yl)-2-(methoxyimino)propanamide], the inhibition at 10 µM came to 35% at human CB1 receptor and 5% at human CB2 receptor. In addition, in the experiment on ABCA1 protein, the pEC50 is 5.48.
Regarding `Cc1cc(C(=O)Nc2cnc(OCC(F)(F)F)c(-c3ccc(Cl)cc3)c2)n[nH]1` [Example 23, 5-methyl-1H-pyrazole-3-carboxylic acid[5-(4-chloro-phenyl)-6-(2,2,2-trifluoro-ethoxy)-pyridin-3-yl]-amide], the inhibition at 10 µM is 12% on human CB1 receptor and -8% on human CB2 receptor. Further, the pEC50 in the experiment on ABCA1 protein is 6.14.
Take `O=C(Nc1cnc(OCC(F)(F)F)c(-c2ccc(Cl)cc2F)c1)c1cncnc1` [Example 55, N-(5-(4-chloro-2-fluorophenyl)-6-(2,2,2-trifluoroethoxy)pyridin-3-yl)pyrimidine-5-carboxamide]: the inhibition at 10 µM worked out at 35% at human CB1 receptor and 4% on human CB2 receptor. Moreover, the “% increase of ABCA1 at 3 μM” value with ABCA1 protein is given as greater than 45% @ 3 μM.
Taken in the same sequence, the figures for `Cc1cc(-c2cc(NC(=O)c3cncc(C#N)c3)cnc2OCC(F)(F)F)ccc1Cl` [Example 61, N-(5-(4-chloro-3-methylphenyl)-6-(2,2,2-trifluoroethoxy)pyridin-3-yl)-5-cyanonicotinamide] were 17%, 12% and greater than 45% @ 3 μM.
For `O=C(Nc1cnc(OCC(F)(F)F)c(-c2ccc(Cl)c(F)c2)c1)c1cccnc1` [Example 44, N-(5-(4-chloro-3-fluorophenyl)-6-(2,2,2-trifluoroethoxy)pyridin-3-yl)nicotin-amide], the inhibition at 10 µM on human CB1 receptor worked out at 15%; on human CB2 receptor it was 14%. The compound also showed a pEC50 with ABCA1 protein of 5.90.
As for `O=C(Nc1cnc(OCC(F)(F)F)c(-c2ccc(Cl)cc2)c1)c1nccs1` [Example 35, 2-thiazolecarboxylic acid[5-(4-chloro-phenyl)-6-(2,2,2-trifluoro-ethoxy)-pyridin-3-yl]-amide], the inhibition at 10 µM is 18% on human CB1 receptor and -3% on human CB2 receptor. Also, the “% increase of ABCA1 at 3 μM” value in the experiment on ABCA1 protein was greater than 45% @ 3 μM.
For `Cc1cc(-c2cc(NC(=O)c3cccnc3)cnc2OCC(F)(F)F)ccc1Cl` [Example 39, N-(5-(4-chloro-3-methylphenyl)-6-(2,2,2-trifluoroethoxy)pyridin-3-yl)nicotin-amide], the inhibition at 10 µM at human CB1 receptor was 19%; at human CB2 receptor, 16%. Besides, the pEC50 in the experiment with ABCA1 protein is 5.65.
Turning to `O=C(Nc1cnc(OCC(F)(F)F)c(-c2ccc(Cl)cc2)c1)[C@H]1CCOC1` (racemic) [Example 71, (SR)-N-(5-(4-chlorophenyl)-6-(2,2,2-trifluoroethoxy)pyridin-3-yl)-tetrahydrofuran-3-carboxamide], the inhibition at 10 µM at human CB1 receptor turned out to be 41%; at human CB2 receptor, 4%. The “% increase of ABCA1 at 3 μM” value with ABCA1 protein was greater than 45% @ 3 μM.
In the case of `O=C(Nc1cnc(OCC(F)(F)F)c(-c2ccc(Cl)c(F)c2)c1)c1cccnn1` [Example 63, N-(5-(4-chloro-3-fluorophenyl)-6-(2,2,2-trifluoroethoxy)pyridin-3-yl)pyridazine-3-carboxamide], the inhibition at 10 µM on human CB1 receptor was 5%; on human CB2 receptor it was -1%. This compound gave a pEC50 with ABCA1 protein of 6.17.
On to `CCCC(=O)Nc1cnc(OCC(F)(F)F)c(-c2ccc(Cl)cc2)c1` [Example 6, N-[5-(4-Chloro-phenyl)-6-(2,2,2-trifluoro-ethoxy)-pyridin-3-yl]-butyramide], for which the inhibition at 10 µM at human CB1 receptor came out at 47%; on human CB2 receptor, 11%. The “% increase of ABCA1 at 3 μM” value in the experiment with ABCA1 protein was greater than 45% @ 3 μM.
Consider `Cc1cc(-c2cc(NC(=O)c3ccnc(O)c3)cnc2OCC(F)(F)F)ccc1Cl` [Example 57, N-(5-(4-chloro-3-methylphenyl)-6-(2,2,2-trifluoroethoxy)pyridin-3-yl)-2-hydroxyisonicotinamide], for which the inhibition at 10 µM was 0% on human CB1 receptor and -18% on human CB2 receptor. For the same compound, the “% increase of ABCA1 at 3 μM” value in the experiment on ABCA1 protein is reported as greater than 45% @ 3 μM.
In the case of `O=C(Nc1cnc(OCC(F)(F)F)c(-c2cccc(Cl)c2)c1)c1cccnc1` [Example 76, N-(5-(3-chlorophenyl)-6-(2,2,2-trifluoroethoxy)pyridin-3-yl)nicotinamide], the inhibition at 10 µM at human CB1 receptor worked out at 1%; on human CB2 receptor, 5%. Moreover, the “% increase of ABCA1 at 3 μM” value in the experiment with ABCA1 protein is greater than 45% @ 3 μM.
Taken in the same sequence, the figures for `Cc1nn(C)cc1C(=O)Nc1cnc(OCC(F)(F)F)c(-c2ccc(Cl)cc2)c1` [Example 33, 1,3-dimethyl-1H-pyrazole-4-carboxylic acid[5-(4-chloro-phenyl)-6-(2,2,2-trifluoro-ethoxy)-pyridin-3-yl]-amide] were 22%, -2% and greater than 45% @ 3 μM.
As for `O=C(Nc1cnc(OCC(F)(F)F)c(-c2ccc(Cl)cc2)c1)c1ccno1` [Example 30, 5-isoxazolecarboxylic acid[5-(4-chloro-phenyl)-6-(2,2,2-trifluoro-ethoxy)-pyridin-3-yl]-amide], the inhibition at 10 µM at human CB1 receptor is 27%; at human CB2 receptor it was -4%. Further, the negative logarithm of the EC50 (pEC50) with ABCA1 protein was 5.41.
As for `Cc1noc(C)c1C(=O)Nc1cnc(OCC(F)(F)F)c(-c2ccc(Cl)cc2)c1` [Example 31, 3,5-dimethyl-4-isoxazolecarboxylic acid[5-(4-chloro-phenyl)-6-(2,2,2-trifluoro-ethoxy)-pyridin-3-yl]-amide], the inhibition at 10 µM on human CB1 receptor turned out to be 44%; on human CB2 receptor it was 7%. The “% increase of ABCA1 at 3 μM” value in the experiment on ABCA1 protein is reported as greater than 45% @ 3 μM.
For `COC(C)C(=O)Nc1cnc(OCC(F)(F)F)c(-c2ccc(Cl)cc2)c1` (stereo not drawn) [Example 86, N-(5-(4-chlorophenyl)-6-(2,2,2-trifluoroethoxy)pyridin-3-yl)-2-methoxy-propanamide], in that order: 48%, 5% and greater than 45% @ 3 μM.
As to `O=C(Nc1cnc(OCC(F)(F)F)c(-c2ccc(Cl)cc2)c1)c1ccoc1` [Example 67, N-(5-(4-chlorophenyl)-6-(2,2,2-trifluoroethoxy)pyridin-3-yl)furan-3-carboxamide], the inhibition at 10 µM at human CB1 receptor was 33%; on human CB2 receptor, 9%. Further, the “% increase of ABCA1 at 3 μM” value in the experiment on ABCA1 protein was greater than 45% @ 3 μM.
For the compound `Cc1nc(C)c(C(=O)Nc2cnc(OCC(F)(F)F)c(-c3ccc(Cl)cc3)c2)o1` [Example 21, 2,4-dimethyl-5-oxazolecarboxylic acid[5-(4-chloro-phenyl)-6-(2,2,2-trifluoro-ethoxy)-pyridin-3-yl]-amide], the inhibition at 10 µM on human CB1 receptor worked out at 29%; on human CB2 receptor, 1%. For the same compound, in the experiment with ABCA1 protein, the pEC50 is 5.86.

Values taken from US8410107B2, “N-pyridin-3-yl or N-pyrazin-2-yl carboxamides” (Hoffmann-La Roche Inc., priority 2010, dated 2013).
